IC50 data for 33 compounds are collected here from patent publication EP1976513B1 (priority 2006, dated 2007).

Where two headings read alike, the source gives them in different places.

Assay [1] has as its target human serotonin reuptake transporter (Homo sapiens, UniProt P31645). Briefly: cell-based.
In assay [2] the target is T1, human dopamine reuptake transporter (Homo sapiens, UniProt Q01959).
T1 construct: expressed in transfected cells; host or cells: CHO-K1 or HEK293
Nature of the assay: cell-based. To be noted: recombinant human dopamine transporter (DAT); read-out: Human IC50 (nM) hDAT.

The mark [3] stands for this setting: recombinant human serotonin transporter (SERT), read-out: Human IC50 (nM) hSERT.

T1 sequence (Q01959 whole entry): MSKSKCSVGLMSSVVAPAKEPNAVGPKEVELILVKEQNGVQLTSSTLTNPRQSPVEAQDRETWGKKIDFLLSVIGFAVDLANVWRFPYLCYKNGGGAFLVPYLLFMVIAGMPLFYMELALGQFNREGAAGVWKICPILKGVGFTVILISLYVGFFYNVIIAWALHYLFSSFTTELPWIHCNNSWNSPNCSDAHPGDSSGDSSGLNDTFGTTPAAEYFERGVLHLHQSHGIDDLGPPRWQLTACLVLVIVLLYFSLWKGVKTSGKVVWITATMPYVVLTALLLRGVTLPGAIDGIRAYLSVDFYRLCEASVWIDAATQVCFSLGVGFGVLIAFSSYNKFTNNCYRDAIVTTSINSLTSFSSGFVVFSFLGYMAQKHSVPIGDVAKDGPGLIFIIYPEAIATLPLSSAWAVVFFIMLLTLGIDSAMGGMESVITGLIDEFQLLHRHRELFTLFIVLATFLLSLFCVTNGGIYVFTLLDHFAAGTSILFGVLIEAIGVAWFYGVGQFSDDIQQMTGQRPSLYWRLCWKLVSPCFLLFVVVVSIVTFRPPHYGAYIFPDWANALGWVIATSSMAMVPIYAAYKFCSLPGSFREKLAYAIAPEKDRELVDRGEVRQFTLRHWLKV
Sequence of human serotonin reuptake transporter (P31645 whole entry): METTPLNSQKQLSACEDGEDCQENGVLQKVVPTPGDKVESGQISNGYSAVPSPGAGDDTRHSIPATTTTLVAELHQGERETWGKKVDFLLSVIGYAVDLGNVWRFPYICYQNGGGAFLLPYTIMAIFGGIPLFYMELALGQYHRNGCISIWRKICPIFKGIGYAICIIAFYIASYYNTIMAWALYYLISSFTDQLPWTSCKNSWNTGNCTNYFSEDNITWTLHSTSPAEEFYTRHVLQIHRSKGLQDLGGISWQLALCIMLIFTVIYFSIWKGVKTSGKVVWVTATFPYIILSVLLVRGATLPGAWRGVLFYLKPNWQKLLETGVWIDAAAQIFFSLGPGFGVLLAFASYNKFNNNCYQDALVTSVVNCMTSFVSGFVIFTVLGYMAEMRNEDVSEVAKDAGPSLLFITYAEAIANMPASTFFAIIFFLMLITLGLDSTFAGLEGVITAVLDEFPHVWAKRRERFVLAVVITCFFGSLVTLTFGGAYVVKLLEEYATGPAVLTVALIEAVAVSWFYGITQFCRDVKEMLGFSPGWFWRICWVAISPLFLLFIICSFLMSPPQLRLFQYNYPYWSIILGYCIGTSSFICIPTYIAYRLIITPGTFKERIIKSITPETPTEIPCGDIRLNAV

On to `CC(C)CC(N)C1(c2ccc(Cl)cc2)CCCCC1` (single isomer, unassigned) [21 E2, 1-(1-(4-chlorophenyl)cyclohexyl)-3-methylbutan-1-amine], for which the IC50 in assay [1] (Human IC50 (nM) hSERT) stood at 1240 nM.
For the compound `CNCC1(c2ccc(Cl)c(Cl)c2)CCC(F)(F)CC1` [Compound 268, 1-(1-(3,4-dichlorophenyl)-4,4-difluorocyclohexyl)-N-methylmethanamine], in assay [1] (setting [3]), the IC50 was found to be 704 nM.
As to `CCC(NC)C1(c2ccc(Cl)c(Cl)c2)CCCCC1` (single isomer, unassigned) [62 E2, 1-(1-(3,4-dichlorophenyl)cyclohexyl)-N-methylpropan-1-amine], the IC50 in assay [2] came out at 4 nM.
As for `NC[C@]1(c2ccc(Cl)c(Cl)c2)CC[C@H](O)CC1` [Compound 299, (1s,4s)-4-(aminomethyl)-4-(3,4-dichlorophenyl)cyclohexanol], the concentration for half-maximal inhibition (IC50) in assay [2] was 720 nM.
`NCC1(c2ccc(Cl)c(Cl)c2)CCCC(O)C1` (single isomer, unassigned) [184 E2, Cis-3-(aminomethyl)-3-(3,4-dichlorophenyl)cyclohexanol]: the IC50 in assay [1] (setting [3]) is over 10000 nM.
As to `NCC1(c2ccc(Cl)c(Cl)c2)CCCC(O)C1` (single isomer, unassigned) [184 E1, Cis-3-(aminomethyl)-3-(3,4-dichlorophenyl)cyclohexanol], the concentration for half-maximal inhibition (IC50) in assay [1] (setting [3]) was over 10000 nM.
For the compound `NCC1(c2ccc(Cl)c(Cl)c2)CCCC(O)C1` (single isomer, unassigned) [185 E2, Trans-3-(aminomethyl)-3-(3,4-dichlorophenyl)cyclohexanol], the IC50 in assay [1] (setting [3]) was over 10000 nM.
Turning to `CN(C)CC1(c2ccc(OC(F)(F)F)cc2)CCC(O)CC1` (stereo not drawn) [Compound 250, 4-((dimethylamino)methyl)-4-(4-(trifluoromethoxy)phenyl)cyclohexanol], the IC50 in assay [1] (setting [3]) is 47 nM.
As to `CCC1(O)CCC(CNC)(c2ccc(Cl)c(Cl)c2)CC1` (stereo not drawn) [Compound 282, 4-(3,4-dichlorophenyl)-1-ethyl-4-((methylamino)methyl)cyclohexanol], the IC50 in assay [2] was 186 nM.
The same measure, in the same setting: as for `CNC(C)C1(c2cccc3ccccc23)CCCCC1` (single isomer, unassigned) [59 E1, N-methyl-1-(1-(naphthalen-1-yl)cyclohexyl)ethanamine], the figure is 1750 nM.
`CNCC1(c2ccc(Cl)c(Cl)c2)CCCC(F)(F)C1` (single isomer, unassigned) [205 E1, 1-(1-(3,4-dichlorophenyl)-3,3-difluorocyclohexyl)-N-methylmethanamine]: the 50% inhibitory concentration (IC50) in assay [1] (Human IC50 (nM) hSERT) is 4210 nM.
Turning to `CCC1(O)CCC(CNC)(c2ccc(Cl)c(Cl)c2)CC1` (stereo not drawn) [Compound 279, 4-(3,4-dichlorophenyl)-1-ethyl-4-((methylamino)methyl)cyclohexanol], in assay [2], the IC50 is 1450 nM.
With `CCC(NC)C1(c2ccc(Cl)c(Cl)c2)CCCCC1` (single isomer, unassigned) [62 E1, 1-(1-(3,4-dichlorophenyl)cyclohexyl)-N-methylpropan-1-amine], the IC50 in assay [2] worked out at 39 nM.
Regarding `NCC1(c2ccc(F)c(Cl)c2)CCCCC1` [Compound 32, (1-(3-chloro-4-fluorophenyl)cyclohexyl)-methanamine], in assay [2], the IC50 turned out to be 424 nM.
In the case of `CC(N)C1(c2ccc(-c3ccco3)cc2)CCCCC1` (single isomer, unassigned) [22 E1, 1-(1-(4-(furan-2-yl)phenyl)cyclohexyl)ethanamine], in assay [1] (setting [3]), the IC50 was 63 nM.
In the case of `CC(C)CC(N)C1(c2ccc(Cl)cc2)CCCCC1` (stereo not drawn) [Compound 21, 1-(1-(4-chlorophenyl)cyclohexyl)-3-methylbutan-1-amine], in assay [1] (Human IC50 (nM) hSERT), half-maximal inhibition (IC50) was put at 2100 nM.
Consider `CNCC1(c2ccc(OC)cc2)CCCCC1O` (single isomer, unassigned) [140 E2, trans-2-(4-Methoxyphenyl)-2-((methylamino)methyl)cyclohexanol], for which the half-maximal inhibitory concentration (IC50) in assay [1] (setting [3]) was over 10000 nM.
In the case of `CC(N)C1(c2ccc(-c3ccco3)cc2)CCCCC1` (stereo not drawn) [Compound 22, 1-(1-(4-(furan-2-yl)phenyl)cyclohexyl)ethanamine], the IC50 in assay [1] (setting [3]) was found to be 296 nM.
Regarding `CC(N)C1(c2ccc(-c3ccco3)cc2)CCCCC1` (single isomer, unassigned) [22 E2, 1-(1-(4-(furan-2-yl)phenyl)cyclohexyl)ethanamine], the IC50 in assay [1] (setting [3]) turned out to be 101 nM.
As for `CC(C)CC(N)C1(c2ccc(Cl)cc2)CCCCC1` (single isomer, unassigned) [21 E1, 1-(1-(4-chlorophenyl)cyclohexyl)-3-methylbutan-1-amine], 9660 nM corresponded to half-maximal inhibition in assay [1] (Human IC50 (nM) hSERT) (IC50).
Take `CNCC1(c2ccc(Cl)cc2)CCCCC1O` (single isomer, unassigned) [136 E1, trans-2-(4-chlorophenyl)-2-((methylamino)methyl)-cyclohexanol]: the IC50 in assay [1] (setting [3]) was over 10000 nM.
Turning to `CC1(O)CCC(CN)(c2ccc(Cl)c(Cl)c2)CC1` (stereo not drawn) [Compound 272, 4-(aminomethyl)-4-(3,4-dichlorophenyl)-1-methylcyclohexanol], the IC50 in assay [1] (setting [3]) is over 10000 nM.
As for `CNCC1(c2cccc(C(F)(F)F)c2)CCCCC1` [Compound 104, N-methyl-1-(1-(3-(trifluoromethyl)phenyl)-cyclohexyl)methanamine], the IC50 in assay [1] (Human IC50 (nM) hSERT, recombinant human serotonin transporter (SERT)) was 9490 nM.
`CNCC1(c2ccc(Cl)c(Cl)c2)CCCC(F)(F)C1` (single isomer, unassigned) [205 E2, 1-(1-(3,4-dichlorophenyl)-3,3-difluorocyclohexyl)-N-methylmethanamine] displayed an IC50 in assay [1] (Human IC50 (nM) hSERT) of 1710 nM.
Consider `CNCC1(c2ccc(OC(F)(F)F)cc2)CCC(C)(O)CC1` (stereo not drawn) [Compound 247, 1-methyl-4-((methylamino)methyl)-4-(4-(trifluoromethoxy)phenyl)cyclohexanol], for which the IC50 in assay [1] (setting [3]) is 707 nM.
As to `CNCC1(c2ccc(Cl)cc2)CCCCC1O` (single isomer, unassigned) [136 E2, trans-2-(4-chlorophenyl)-2-((methylamino)methyl)-cyclohexanol], the IC50 in assay [1] (setting [3]) is over 10000 nM.
With `CC(N)C1(c2ccc(OC(F)(F)F)cc2)CCCCC1` (single isomer, unassigned) [19 E1, 1-(1-(4-(trifluoromethoxy)phenyl)cyclohexyl)ethanamine], the IC50 in assay [1] (setting [3]) turned out to be 1510 nM.
In the case of `CCNCC1(c2ccc(Cl)c(Cl)c2)CCCCC1CO` (single isomer, unassigned) [169 E2, (2-(3,4-dichlorophenyl)-2-((ethylamino)methyl)-cyclohexyl)methanol], the IC50 in assay [1] (setting [3]) is 332 nM.
On the same count and under the same terms, the same measure for `CCNCC1(c2ccc(Cl)c(Cl)c2)CCCCC1CO` (single isomer, unassigned) [169 E1, (2-(3,4-dichlorophenyl)-2-((ethylamino)methyl)-cyclohexyl)methanol]: 1100 nM; for `CC(N)C1(c2ccc(OC(F)(F)F)cc2)CCCCC1` (stereo not drawn) [Compound 19, 1-(1-(4-(trifluoromethoxy)phenyl)cyclohexyl)ethanamine]: 107 nM.
As for `NCC1(c2ccc(Cl)c(Cl)c2)CCCC(O)C1` (single isomer, unassigned) [185 E1, Trans-3-(aminomethyl)-3-(3,4-dichlorophenyl)cyclohexanol], the 50% inhibitory concentration (IC50) in assay [1] (setting [3]) is over 10000 nM.
`CC1(O)CCC(CN)(c2ccc(Cl)c(Cl)c2)CC1` (stereo not drawn) [Compound 275, 4-(aminomethyl)-4-(3,4-dichlorophenyl)-1-methylcyclohexanol]: in assay [1] (setting [3]), the half-maximal inhibitory concentration (IC50) turned out to be 1190 nM.
Turning to `CC(N)C1(c2ccc(OC(F)(F)F)cc2)CCCCC1` (single isomer, unassigned) [19 E2, 1-(1-(4-(trifluoromethoxy)phenyl)cyclohexyl)ethanamine], the IC50 in assay [1] (setting [3]) is 398 nM.
